The results in this text go back to PubChem BioAssay (NCI).

SMILES strings stand for the structures.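 Step 1: Grow cells in 96-well plates. Step 2: Expose to compound for 48 hours at 5 concentrations. Step 3: Interpolate endpoints linearly; if unreached, use highest concentration. GI50 marks 50% less growth. TGI marks complete inhibition of growth.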

Holding throughout (assay): NCI tumour cell line growth inhibition, 48 h
The test system of assay [1] is OVCAR-4 ovarian.
The subject of assay [2] is SK-MEL-28 melanoma.
The subject of assay [3] is M14 melanoma.
The test system of assay [4] is DU-145 prostate.
The subject of assay [5] is UACC-62 melanoma.
The test system of assay [6] is SF-268 CNS.
Assay [7] concerns MCF7 breast.
For assay [8], the system named is OVCAR-8 ovarian.
Assay [9] relates to COLO 205 colon.
Assay [10] has as its system SR leukemia.

`C#Cc1ccc(-n2c(/C=C/c3cc(OC)c(OC)c(OC)c3)nc3ncccc3c2=O)cc1`: the GI50 in assay [1] was 12 µM; in [2], 34.6 µM; in assay [3] it was 4.94 µM; in assay [4], 5.36 µM; in [5], 6.9 µM; in assay [6], 5.33 µM. In addition, the GI50 is 3.17 µM in [7], 9.67 µM in assay [8] and 3.19 µM in [9]. Moreover, the TGI in assay [1] was 90.3 µM; in [2], more than 100 µM; in assay [3], more than 100 µM; in assay [4] it was more than 100 µM; in [5], more than 100 µM; in [6], 98 µM. For the same compound, the TGI in assay [7] was more than 100 µM; in assay [8] it was more than 100 µM; in assay [9], 11.9 µM.
Take `COC(=O)C1CCC(=NC2c3ccccc3-c3ccccc32)N1` (configuration not stated): the TGI in [1], in assay [2], in assay [3], in assay [5], in [6] and in assay [8] was more than 100 µM throughout. This compound displayed a TGI in assay [9] of more than 100 µM.
Turning to `C/C(=N\NC(=S)N1CCC(C2CCN(C(=S)N/N=C(\C)c3ccccn3)CC2)CC1)c1ccccn1`, the TGI in [1], in assay [2], in assay [3], in assay [5], in assay [6] and in [8] was more than 100 µM throughout. Further, in assay [9], the TGI is more than 100 µM.
Take `Nc1ncnc2c1ncn2Cc1ccc(C23CC4CC(CC(C4)C2)C3)c(O)c1`: the GI50 in assay [1] is 2.71 µM; in assay [2], 18.9 µM; in assay [4], 27.3 µM; in assay [5] it was 31.8 µM; in assay [6], 21.1 µM; in [7] it was 17.4 µM. For the same compound, the GI50 in [8] was 17.5 µM; in assay [9], 29.1 µM. Moreover, the TGI is 8.66 µM in [1]; more than 100 µM in [2]; more than 100 µM in assay [4]; more than 100 µM in assay [5]; more than 100 µM in [6]; more than 100 µM in assay [7]. Also, the TGI in assay [8] and in assay [9] was more than 100 µM each time.
Take `Clc1ccccc1C1=NN(c2ccccc2)C2c3cc(Br)ccc3OCC12` (configuration not stated): the TGI in [2], in assay [6], in assay [8] and in assay [9] was more than 100 µM throughout.
In the case of `Cn1c(COC(=O)NCCN2CCOCC2)nc2c(N3CCOCC3)nc(-c3ccccc3)nc21`, the GI50 was 1.11 µM in [1]; 1.51 µM in assay [2]; 1.15 µM in [3]; 1.25 µM in assay [4]; 1.36 µM in assay [5]; 1.38 µM in assay [6]. Also, the values for the GI50 in assay [7], in [8] and in assay [9] were 0.47 µM, 1.3 µM and 1.49 µM, respectively. Besides, the TGI in assay [1] came out at 2.53 µM; in [2], 2.94 µM; in [3], 2.58 µM; in assay [4] it was 2.68 µM; in [5] it was 2.81 µM; in assay [6] it was 2.95 µM. The TGI stood at 2.18 µM in [7], 3.4 µM in assay [8] and 3.36 µM in [9].
Consider `O=C1c2ccccc2C(=O)c2c1ccc1c3ccccc3n(Cc3ccccc3)c21`, for which the TGI in assay [1], in assay [3], in assay [5], in assay [10], in assay [6] and in assay [8] was more than 100 µM in each case. Moreover, in assay [9], the TGI was more than 100 µM.
As for `COc1ncnc2c(-c3ccco3)cn(COCc3ccccc3)c12`, the GI50 is more than 50 µM in [1]; more than 50 µM in [2]; 22.5 µM in [3]; more than 50 µM in [4]; 8.2 µM in [5]; more than 50 µM in assay [6]. Besides, the GI50 in assay [8] and in assay [9] was more than 50 µM each time. Moreover, the TGI in assay [1], in assay [2], in assay [3], in [4], in assay [5] and in assay [6] was more than 50 µM in each case. The TGI in assay [8] and in assay [9] was more than 50 µM each time.
In the case of `O=C1c2cccc3cccc(c23)C(=O)N1CCCN1CCN(CCCN2C(=O)c3cccc4cccc(c34)C2=O)CC1`, the TGI in assay [1], in assay [3], in assay [5], in [8] and in [9] was more than 100 µM in each case.
Regarding `COc1ccc(-n2nc(C)c3c2N(C)C2(C)C[C@@H]4C3(C)[C@@H]3CC4(C2)N(C)c2c(c(C)nn2-c2ccc(OC)cc2)[C@H]3C)cc1` (some centres not stated), the GI50 in assay [1] was 5.95 µM; in assay [2], 15.2 µM; in assay [4], 23 µM; in assay [5], 12.6 µM; in assay [6], 4.08 µM; in assay [7] it was 4.02 µM. Further, the GI50 in [8] is 4.19 µM. Also, the TGI is more than 100 µM in assay [1]; more than 100 µM in [2]; more than 100 µM in assay [4]; more than 100 µM in assay [5]; 70.2 µM in [6]; more than 100 µM in assay [7]. For the same compound, the TGI in assay [8] was 92.7 µM.
In the case of `CCOC(=O)NNC(=O)NC12CC3CC(CC(C3)C1)C2`, the TGI in assay [1], in assay [2], in assay [3], in [5], in assay [6] and in [8] was more than 100 µM each time. Also, the TGI in assay [9] is more than 100 µM.
Turning to `C=C(C)[C@@H]1CCC[C@]2(C(=O)O)CC[C@]3(C)[C@@H](CC[C@@H]4[C@@]5(C)C/C(=C/c6ccncc6)C(=O)C(C)(C)[C@@H]5CC[C@]43C)[C@@H]12`, the GI50 is 4.31 µM in assay [1]; 2.1 µM in assay [2]; 2.24 µM in assay [3]; 4.03 µM in assay [4]; 2.05 µM in [5]; 3.81 µM in assay [6]. Also, the figures for the GI50 in assay [7], in [8] and in assay [9] were 2.77 µM, 3.07 µM and 1.64 µM, respectively. Further, the TGI in [1] was determined as 67.4 µM; in [2], 4.58 µM; in assay [3], 5.85 µM; in assay [4] it was 45.1 µM; in assay [5] it was 5.68 µM; in [6], 91 µM. Further, the TGI in assay [7] is 28.5 µM; in [8], more than 100 µM; in [9] it was 3.25 µM.
